Results: ChEMBL document CHEMBL1201862, “PubChem BioAssay data set” (2004)
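Dose response: 5 concentrations. Exposure: 48 h. Format: 96-well plates. Endpoint: linear interpolation; highest concentration if not reached. GI50 is the concentration that inhibits growth by half.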 Calls of active or inactive are those of the source. Cut-off read from the data, not from the text of the source: active = GI50 up to about 1.1 µM and inactive = higher.

How the values were obtained:
Experiment in all cases: NCI tumour cell line growth inhibition, 48 h
[1] = test system: EKVX
[2] = test system: HCT-116
[3] = test system: HCT-15
[4] = test system: HOP-92
[5] = test system: HT-29
[6] = test system: LOX IMVI
[7] = test system: Malme-3M
[8] = test system: NCI-H460
[9] = test system: OVCAR-3
[10] = test system: SF-539
[11] = test system: SK-MEL-5
[12] = test system: SNB-19
[13] = test system: SNB-75
[14] = test system: UACC-257
[15] = test system: UACC-62

Structure (SMILES) | GI50 [1] | GI50 [2] | GI50 [3] [µM] | GI50 [4] | GI50 [5] | GI50 [6] | GI50 [7] | GI50 [8] | GI50 [9] | GI50 [10] | GI50 [11] | GI50 [12] | GI50 [13] | GI50 [14] | GI50 [15]
COC(=O)c1cc(C(=O)OC)c(CC(=O)C(=O)NC2C3CC4CC(C3)CC2C4)nc1CC(=O)C(=O)NC1C2CC3CC(C2)CC1C3 (stereo not drawn) | > 100 µM (inactive) | > 100 µM (inactive) | > 100 | 74.6 µM (inactive) | > 100 µM (inactive) | > 100 µM (inactive) | > 100 µM (inactive) | > 100 µM (inactive) | > 100 µM (inactive) | > 100 µM (inactive) | > 100 µM (inactive) | > 100 µM (inactive) | > 100 µM (inactive) | > 100 µM (inactive) | > 100 µM (inactive)
Cc1cc2c(C)n(Cc3ccc(Cl)cc3Cl)nc2c(C#N)c1C | 57.1 µM (inactive) | 29.8 µM (inactive) | > 100 | 13.6 µM (inactive) | 55.5 µM (inactive) | 49.5 µM (inactive) | 24.9 µM (inactive) | 35.9 µM (inactive) | 34.7 µM (inactive) | 27.2 µM (inactive) | 85.3 µM (inactive) | 15.7 µM (inactive) | 7.94 µM (inactive) | > 100 µM (inactive) | > 100 µM (inactive)
O=C1c2ccccc2N2OC3(N4CCOCC4)CCCC3C12c1ccccc1 (stereo not drawn) | > 100 µM (inactive) | > 100 µM (inactive) | > 100 | 53.3 µM (inactive) | > 100 µM (inactive) |  | > 100 µM (inactive) |  |  | > 100 µM (inactive) | > 100 µM (inactive) | > 100 µM (inactive) | > 100 µM (inactive) | > 100 µM (inactive) | 93.1 µM (inactive)
Clc1cccc(C2SCc3nc4ccccc4n32)c1 (stereo not drawn) | 17.5 µM (inactive) |  | 16.8 | 11.5 µM (inactive) | 23.7 µM (inactive) | 15.2 µM (inactive) | 22 µM (inactive) | 27.8 µM (inactive) | 14.4 µM (inactive) | 21.1 µM (inactive) |  |  | 3.52 µM (inactive) |  | 13.8 µM (inactive)
O=C(Nc1ccc(Br)cc1)C(=O)C(C(=O)c1ccc(Cl)c(Cl)c1)C1OC(=O)c2ccccc21 (stereo not drawn) | 28.8 µM (inactive) | 12.5 µM (inactive) | 20.9 | 15 µM (inactive) | 21.3 µM (inactive) | 17.6 µM (inactive) | 10.4 µM (inactive) | 15.1 µM (inactive) | 18.5 µM (inactive) |  |  | 16.7 µM (inactive) | 20.8 µM (inactive) | 16 µM (inactive) | 13.4 µM (inactive)
COc1ccc(OC)c(NC(=O)C(=O)C(C(C)=O)c2nc3ccc(Cl)cc3nc2O)c1 (stereo not drawn) | > 50 µM (inactive) | > 50 µM (inactive) | > 50 | > 50 µM (inactive) | > 50 µM (inactive) | > 50 µM (inactive) | > 50 µM (inactive) | > 50 µM (inactive) | > 50 µM (inactive) | > 50 µM (inactive) | > 50 µM (inactive) | > 50 µM (inactive) | > 50 µM (inactive) | > 50 µM (inactive) | > 50 µM (inactive)
COC1(OC)CC2CCCCC2=C(C)N1S(=O)(=O)c1ccccc1 (stereo not drawn) | > 100 µM (inactive) | > 100 µM (inactive) | > 100 | > 100 µM (inactive) | > 100 µM (inactive) | > 100 µM (inactive) | > 100 µM (inactive) | > 100 µM (inactive) | > 100 µM (inactive) | > 100 µM (inactive) | > 100 µM (inactive) | > 100 µM (inactive) | > 100 µM (inactive) | > 100 µM (inactive) | > 100 µM (inactive)
[N-]=[N+]=Nc1nnc(CCCCc2nnc(N=[N+]=[N-])o2)o1 | > 100 µM (inactive) | > 100 µM (inactive) | > 100 | > 100 µM (inactive) | > 100 µM (inactive) | > 100 µM (inactive) | > 100 µM (inactive) | > 100 µM (inactive) | > 100 µM (inactive) | > 100 µM (inactive) | > 100 µM (inactive) | > 100 µM (inactive) | > 100 µM (inactive) | > 100 µM (inactive) | > 100 µM (inactive)
COC(=O)/C=C(C)/C=C/C1OC(C)OCC1O (stereo not drawn) | > 100 µM (inactive) |  | > 100 | > 100 µM (inactive) | > 100 µM (inactive) | > 100 µM (inactive) | > 100 µM (inactive) | > 100 µM (inactive) | > 100 µM (inactive) | > 100 µM (inactive) | > 100 µM (inactive) | > 100 µM (inactive) |  | > 100 µM (inactive) | > 100 µM (inactive)
Nc1nc2c(ncn2Cc2ccccc2CCO)c(=O)[nH]1 | > 100 µM (inactive) |  | > 100 | > 100 µM (inactive) | > 100 µM (inactive) | > 100 µM (inactive) | > 100 µM (inactive) | > 100 µM (inactive) | > 100 µM (inactive) |  | > 100 µM (inactive) | > 100 µM (inactive) | > 100 µM (inactive) |  | > 100 µM (inactive)
Cc1csc2nc(-c3ccncc3)cn12 | > 59.7 µM (inactive) | > 42.2 µM (inactive) | > 40.9 | > 100 µM (inactive) | > 100 µM (inactive) | > 43.4 µM (inactive) | > 100 µM (inactive) | > 43.5 µM (inactive) | > 100 µM (inactive) | > 44 µM (inactive) | > 100 µM (inactive) | > 100 µM (inactive) | > 100 µM (inactive) | > 100 µM (inactive) | > 100 µM (inactive)
O=C1NC(c2ccc(O)cc2)C2CCC1C2 (stereo not drawn) | > 100 µM (inactive) | > 100 µM (inactive) |  | > 100 µM (inactive) | > 100 µM (inactive) |  | > 100 µM (inactive) | > 100 µM (inactive) | > 100 µM (inactive) |  | > 100 µM (inactive) | > 100 µM (inactive) | > 100 µM (inactive) | > 100 µM (inactive) | > 100 µM (inactive)
N#Cc1cc([N+](=O)[O-])ccc1NC(=O)C(F)(F)F | > 100 µM (inactive) | > 42.9 µM (inactive) | > 41.4 | 58.7 µM (inactive) | > 45.5 µM (inactive) | > 34.7 µM (inactive) | > 100 µM (inactive) | > 42.3 µM (inactive) | > 100 µM (inactive) | > 100 µM (inactive) | > 100 µM (inactive) | > 100 µM (inactive) | > 49.7 µM (inactive) | > 100 µM (inactive) | > 100 µM (inactive)
CCN(CC)c1ccc(/N=N/c2ccc(-c3nc4cccn(C)c-4n3)cc2)cc1 | 18.5 µM (inactive) | 3.61 µM (inactive) | 3.75 | 11.7 µM (inactive) | 1.98 µM (inactive) | 2.52 µM (inactive) | 12.1 µM (inactive) | 5.07 µM (inactive) | 10.5 µM (inactive) | 12.7 µM (inactive) | 4.8 µM (inactive) | 15.6 µM (inactive) | 17 µM (inactive) | 9.14 µM (inactive) | 11.9 µM (inactive)
COC(=O)/C(=N/NC(C)(C)C)C(C(=O)C=C(C)C)C(=O)C(=O)Nc1ccc(Cl)cc1C (stereo not drawn) | > 100 µM (inactive) | > 100 µM (inactive) | > 100 |  | > 100 µM (inactive) |  | > 100 µM (inactive) | > 100 µM (inactive) | > 100 µM (inactive) | > 100 µM (inactive) | > 100 µM (inactive) | > 100 µM (inactive) |  | > 100 µM (inactive) | > 100 µM (inactive)
COC(=O)C(=O)C(C(C)=O)C(=O)NCc1ccc(OC)c(OC)c1 (stereo not drawn) | > 100 µM (inactive) | > 100 µM (inactive) | > 100 | > 100 µM (inactive) | > 100 µM (inactive) | > 100 µM (inactive) | > 100 µM (inactive) | > 100 µM (inactive) | > 100 µM (inactive) | > 100 µM (inactive) | > 100 µM (inactive) | > 100 µM (inactive) | > 100 µM (inactive) | > 100 µM (inactive) | > 100 µM (inactive)
CC1(C)OC2C(=O)OC(COCc3ccccc3)C2O1 (stereo not drawn) | > 100 µM (inactive) | > 100 µM (inactive) | > 100 | > 100 µM (inactive) | > 100 µM (inactive) | > 100 µM (inactive) | > 100 µM (inactive) | > 100 µM (inactive) | > 100 µM (inactive) | > 100 µM (inactive) | > 100 µM (inactive) |  | > 100 µM (inactive) | > 100 µM (inactive) | > 100 µM (inactive)
CN/N=C(\C(=O)Nc1ccc(C(F)(F)F)cc1[N+](=O)[O-])C(c1cnc2ccc([N+](=O)[O-])cc2n1)[N+](=O)[O-] (stereo not drawn) | 6.71 µM (inactive) | 41.4 µM (inactive) | 37.1 | 64.1 µM (inactive) | 67.1 µM (inactive) | 12.1 µM (inactive) | > 100 µM (inactive) | 33.3 µM (inactive) | 28.6 µM (inactive) | 25.6 µM (inactive) | 28.1 µM (inactive) | 96.6 µM (inactive) |  | 44.5 µM (inactive) | > 10 µM (inactive)
COc1ccc(C2Oc3c(c(O)cc4c3[C@H](c3ccc(O)cc3O)[C@H](O)C(c3ccc(O)c(O)c3)O4)C[C@@H]2O)cc1O (stereo partly drawn) | > 100 µM (inactive) | > 100 µM (inactive) | > 100 | > 100 µM (inactive) | > 100 µM (inactive) | > 100 µM (inactive) | > 100 µM (inactive) | > 100 µM (inactive) | > 100 µM (inactive) | > 100 µM (inactive) | > 100 µM (inactive) | > 100 µM (inactive) | > 100 µM (inactive) | > 100 µM (inactive) | > 100 µM (inactive)
